# Assay results published in patent publication US20230227453A1 (priority 2020, published 2023).
# Legend:
# [1] = target: T1, 5-HT2C edited (accession number AAF35842.1) (Homo sapiens, UniProt P28335, I156V/I160V/N158S); experiment: biochemical; type: binding
# Target sequence in this assay (P28335 whole entry I156V/N158S/I160V, looked up): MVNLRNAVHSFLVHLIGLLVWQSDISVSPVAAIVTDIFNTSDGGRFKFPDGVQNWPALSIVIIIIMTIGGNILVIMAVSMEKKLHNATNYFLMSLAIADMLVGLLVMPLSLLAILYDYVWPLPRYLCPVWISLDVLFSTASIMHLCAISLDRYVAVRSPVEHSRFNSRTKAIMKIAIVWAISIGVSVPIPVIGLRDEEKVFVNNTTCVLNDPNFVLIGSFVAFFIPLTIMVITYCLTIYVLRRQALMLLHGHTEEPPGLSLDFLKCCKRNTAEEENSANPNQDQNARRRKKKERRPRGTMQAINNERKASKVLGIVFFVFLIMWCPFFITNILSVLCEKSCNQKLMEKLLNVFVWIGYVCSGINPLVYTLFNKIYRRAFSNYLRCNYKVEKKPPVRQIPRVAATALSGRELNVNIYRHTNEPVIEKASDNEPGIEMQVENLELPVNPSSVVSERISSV
# [2] = target: T1, 5-HT2C edited (accession number AAF35842.1); experiment: cell-based
# Target sequence in this assay (P28335 33-458 I156V/N158S/I160V limits assumed): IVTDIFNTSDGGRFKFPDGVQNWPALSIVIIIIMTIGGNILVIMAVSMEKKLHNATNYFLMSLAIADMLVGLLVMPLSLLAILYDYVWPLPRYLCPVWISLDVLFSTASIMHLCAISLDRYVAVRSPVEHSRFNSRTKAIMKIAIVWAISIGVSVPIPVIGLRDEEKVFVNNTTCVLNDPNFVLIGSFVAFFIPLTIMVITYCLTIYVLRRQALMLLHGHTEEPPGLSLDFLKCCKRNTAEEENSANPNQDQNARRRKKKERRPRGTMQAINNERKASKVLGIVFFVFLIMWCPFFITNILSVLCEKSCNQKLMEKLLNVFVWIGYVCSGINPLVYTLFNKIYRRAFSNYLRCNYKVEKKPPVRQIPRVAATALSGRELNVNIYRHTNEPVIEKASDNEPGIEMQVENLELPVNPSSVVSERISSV
Compound,IC50 [1],EC50 [2]
"Cc1ccc2c3c(n(C)c2n1)CCNCC3 [Example 10, 2,10-dimethyl-5,6,7,8,9,10-hexahydropyrido[3′,2′:4,5]pyrrolo[2,3-d]azepine]",101 to 1000 nM,10 to 100 nM
"Cc1ccc2c3c(n(C)c2n1)CCN(C1COC1)CC3 [Example 11, 2,10-dimethyl-7-(oxetan-3-yl)-5,6,7,8,9,10-hexahydropyrido[3′,2′:4,5]pyrrolo[2,3-d]azepine]",1000 to 10000 nM,> 10000 nM
"COc1ccc2c3c(n(C)c2n1)CCNCC3 [Example 5, 2-methoxy-10-methyl-5,6,7,8,9,10-hexahydropyrido[3′,2′:4,5]pyrrolo[2,3-d]azepine]",10 to 100 nM,10 to 100 nM
"COc1ccc2c3c([nH]c2n1)CCN(C1COC1)CC3 [Example 4, 2-methoxy-7-(oxetan-3-yl)-5,6,7,8,9,10 hexahydropyrido[3′,2′:4,5]pyrrolo[2,3-d]azepine]",> 10000 nM,> 10000 nM
"Cn1c2c(c3ccc(Br)nc31)CCNCC2 [Example 25, 2-bromo-10-methyl-5,6,7,8,9,10-hexahydropyrido[3′,2′:4,5]pyrrolo[2,3-d]azepine]",10 to 100 nM,< 10 nM
"Clc1cnc2[nH]c3c(c2c1)CCNCC3 [Example 13, 3-chloro-5,6,7,8,9,10-hexahydropyrido[3′,2′:4,5]pyrrolo[2,3-d] azepine]",10 to 100 nM,< 10 nM
"c1cnc2[nH]c3c(c2c1)CCN(C1COC1)CC3 [Example 22, 7-(oxetan-3-yl)-5,6,7,8,9,10-hexahydropyrido[3′,2′:4,5]pyrrolo[2,3-d]azepine]",> 10000 nM,1000 to 10000 nM
"COc1cc2c3c([nH]c2cn1)CCN(C)CC3 [Example 14, 3-methoxy-7-methyl-5,6,7,8,9,10-hexahydropyrido[4′,3′:4,5]pyrrolo[2,3-d]azepine]",> 10000 nM,> 10000 nM
"COc1ccc2c3c(n(C)c2n1)CCN(C1COC1)CC3 [Example 6, 2-methoxy-10-methyl-7-(oxetan-3-yl)-5,6,7,8,9,10-hexahydropyrido[3′,2′:4,5]pyrrolo[2,3-d]azepine]",1000 to 10000 nM,101 to 1000 nM
"CN1CCc2c(n(C)c3ncc(Cl)cc23)CC1 [Example 30, 3-chloro-7,10-dimethyl-5,6,7,8,9,10-hexahydropyrido[3′,2′:4,5]pyrrolo[2,3-d]azepine]",10 to 100 nM,10 to 100 nM
"CN1CCc2c(n(C)c3ncccc23)CC1 [Example 21, 7,10-dimethyl-5,6,7,8,9,10-hexahydropyrido[3′,2′:4,5]pyrrolo[2,3-d]azepine]",10 to 100 nM,10 to 100 nM
"Cc1ccc2c3c([nH]c2n1)CCN(C1COC1)CC3 [Example 9, 2-methyl-7-(oxetan-3-yl)-5,6,7,8,9,10-hexahydropyrido[3′,2′:4,5]pyrrolo[2,3-d]azepine]",> 10000 nM,> 10000 nM
"Cn1c2c(c3cc(Cl)cnc31)CCNCC2 [Example 28, 3-chloro-10-methyl-5,6,7,8,9,10-hexahydropyrido[3′,2′:4,5]pyrrolo[2,3-d]azepine]",10 to 100 nM,10 to 100 nM
"COc1ccc2[nH]c3c(c2n1)CCN(C)CC3 [Example 15, 2-methoxy-8-methyl-5,6,7,8,9,10-hexahydropyrido[2′,3′:4,5]pyrrolo[2,3-d]azepine]",10 to 100 nM,10 to 100 nM
"Cn1c2c(c3cc(Cl)cnc31)CCN(C1COC1)CC2 [Example 29, 3-chloro-10-methyl-7-(oxetan-3-yl)-5,6,7,8,9,10-hexahydropyrido[3′,2′:4,5]pyrrolo[2,3-d]azepine]",1000 to 10000 nM,1000 to 10000 nM
"CN1CCc2[nH]c3ncccc3c2CC1 [Example 20, 7-methyl-5,6,7,8,9,10-hexahydropyrido[3′,2′:4,5]pyrrolo[2,3-d]azepine]",10 to 100 nM,10 to 100 nM
"COc1ccc2c3c([nH]c2n1)CCN(C)CC3 [Example 1, 2-methoxy-7-methyl-5,6,7,8,9,10-hexahydropyrido[3′,2′:4,5]pyrrolo[2,3-d]azepine]",1000 to 10000 nM,101 to 1000 nM
"CN1CCc2[nH]c3ncc(Cl)cc3c2CC1 [Example 26, 3-chloro-7-methyl-5,6,7,8,9,10-hexahydropyrido[3′,2′:4,5]pyrrolo[2,3-d]azepine]",10 to 100 nM,10 to 100 nM
"c1cnc2[nH]c3c(c2c1)CCNCC3 [Example 17, 5,6,7,8,9,10-hexahydropyrido[3′,2′:4,5] pyrrolo[2,3-d] azepine]",10 to 100 nM,< 10 nM
"COc1ccc2c3c([nH]c2n1)CCNCC3 [Example 2, 2-methoxy-5,6,7,8,9,10-hexahydropyrido[3′,2′:4,5]pyrrolo[2,3-d]azepine]",101 to 1000 nM,10 to 100 nM
"Cn1c2c(c3cccnc31)CCNCC2 [Example 18, 10-methyl-5,6,7,8,9,10-hexahydropyrido[3′,2′:4,5]pyrrolo[2,3-d]azepine]",10 to 100 nM,< 10 nM
"Cn1c2c(c3cccnc31)CCN(C1COC1)CC2 [Example 23, 10-methyl-7-(oxetan-3-yl)-5,6,7,8,9,10-hexahydropyrido[3′,2′:4,5]pyrrolo[2,3-d]azepine]",1000 to 10000 nM,1000 to 10000 nM
"Cc1ccc2c3c([nH]c2n1)CCN(C)CC3 [Example 7, 2,7-dimethyl-5,6,7,8,9,10-hexahydropyrido[3′,2′:4,5]pyrrolo[2,3-d]azepine]",101 to 1000 nM,101 to 1000 nM
"Clc1cnc2[nH]c3c(c2c1)CCN(C1COC1)CC3 [Example 27, 3-chloro-7-(oxetan-3-yl)-5,6,7,8,9,10-hexahydropyrido[3′,2′:4,5]pyrrolo[2,3-d]azepine]",101 to 1000 nM,101 to 1000 nM
"Cc1ccc2c3c([nH]c2n1)CCNCC3 [Example 8, 2-methyl-5,6,7,8,9,10-hexahydropyrido[3′,2′:4,5]pyrrolo[2,3-d]azepine]",101 to 1000 nM,10 to 100 nM
"COc1ccc2c3c(n(C)c2n1)CCN(C)CC3 [Example 3, 2-methoxy-7,10-dimethyl-5,6,7,8,9,10-hexahydropyrido[3′,2′:4,5]pyrrolo[2,3-d]azepine]",101 to 1000 nM,101 to 1000 nM
"Cc1ccc2c3c(n(C)c2n1)CCN(C)CC3 [Example 12, 2,7,10-trimethyl-5,6,7,8,9,10-hexahydropyrido[3′,2′:4,5]pyrrolo[2,3-d]azepine]",101 to 1000 nM,101 to 1000 nM
"Brc1ccc2c3c([nH]c2n1)CCNCC3 [Example 16, 2-bromo-5,6,7,8,9,10-hexahydropyrido[3′,2′:4,5]pyrrolo[2,3-d]azepine]",10 to 100 nM,< 10 nM
"Brc1ccc2c3c([nH]c2n1)CCN(C1COC1)CC3 [Example 24, 2-bromo-7-(oxetan-3-yl)-5,6,7,8,9,10-hexahydropyrido[3′,2′:4,5]pyrrolo[2,3-d]azepine]",101 to 1000 nM,101 to 1000 nM
"CN1CCc2[nH]c3nc(Br)ccc3c2CC1 [Example 19, 2-bromo-7-methyl-5,6,7,8,9,10-hexahydropyrido[3′,2′:4,5]pyrrolo[2,3-d]azepine]",101 to 1000 nM,10 to 100 nM
